Measured values reported in patent publication US20080027035A1, “Dpp-Iv Inhibitors” (GRAFFINITY PHARMACEUTICALS AG, priority 2003, published 2008).

Target: T1, DPP-IV (Homo sapiens, UniProt P27487)
T1 construct: Soluble human DPP-IV lacking the transmembrane anchor (Gly31-Pro766); Pre-Pro-alpha-mating factor leader (secretion signal) (N, cleaved yes); made in house
Assay: Inhibition of DPP-IV peptidase activity, continuous fluorimetric assay (Gly-Pro-AMC cleavage)
Format: biochemical
Details: 16 μM Gly-Pro-AMC, pH 7.4, 25° C., 1% DMSO
Procedure: Inhibition of DPP-IV peptidase activity was monitored with a continuous fluorimetric assay. This assay is based on the cleavage of the substrate Gly-Pro-AMC (Bachem) by DPP-IV, releasing free AMC. The assay is carried out in 96-well microtiterplates. In a total volume of 100 μL, compounds are preincubated with […] employing a buffer containing 10 mM Hepes, 150 mM NaCl, 0.005% Tween 20 (pH 7.4). […] The final concentration of DMSO is 1%. The inhibitory potential of the compounds were determined.
Soluble human DPP-IV lacking the transmembrane anchor (Gly31-Pro766) was expressed in a recombinant YEAST-strain as Pre-Pro-alpha-mating fusion.

T1 sequence (P27487 31-766): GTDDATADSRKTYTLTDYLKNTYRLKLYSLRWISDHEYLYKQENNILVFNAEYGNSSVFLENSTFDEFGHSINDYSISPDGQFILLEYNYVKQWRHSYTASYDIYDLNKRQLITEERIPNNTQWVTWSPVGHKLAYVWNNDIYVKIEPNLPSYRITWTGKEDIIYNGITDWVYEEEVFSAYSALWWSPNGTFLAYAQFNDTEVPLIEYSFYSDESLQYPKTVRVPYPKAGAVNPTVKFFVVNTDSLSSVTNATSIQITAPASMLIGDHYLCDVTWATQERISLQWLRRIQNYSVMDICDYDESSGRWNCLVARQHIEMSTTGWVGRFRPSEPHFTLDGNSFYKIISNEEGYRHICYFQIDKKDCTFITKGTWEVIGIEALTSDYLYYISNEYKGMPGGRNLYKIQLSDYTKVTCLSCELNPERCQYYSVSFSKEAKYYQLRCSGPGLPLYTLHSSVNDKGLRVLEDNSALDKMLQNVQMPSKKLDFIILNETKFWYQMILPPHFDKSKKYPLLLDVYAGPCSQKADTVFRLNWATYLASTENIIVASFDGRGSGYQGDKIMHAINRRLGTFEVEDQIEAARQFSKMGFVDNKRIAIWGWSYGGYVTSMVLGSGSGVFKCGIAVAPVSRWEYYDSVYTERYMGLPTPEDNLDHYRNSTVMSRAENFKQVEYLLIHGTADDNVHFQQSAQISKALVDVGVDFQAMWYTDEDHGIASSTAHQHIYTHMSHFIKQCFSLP

Row | SMILES | IC50 [µM]
1 | N[C@@H](CC(=O)N1CCCC(CNC(=O)c2ccccc2)C1)Cc1ccccc1F (mixture of isomers) [Example 94, N-{1-[(3R)-Amino-4-(2-fluoro-phenyl)-butyryl]-piperidin-3-ylmethyl}-benzamide] | 0.101 to 1
2 | N[C@@H](CC(=O)N1CCCC(CO)C1)Cc1ccccc1F (mixture of isomers) [Example 105, 3-Amino-4-(2-fluoro-phenyl)-1-(3-hydroxymethyl-piperidin-1-yl)-butan-1-one] | 1 to 2
3 | N[C@@H](CC(=O)N1CCC[C@H]1COCc1ccccc1)Cc1ccccc1F [Example 32, (3R)-Amino-1-[(2S)-benzyloxymethyl-pyrrolidin-1-yl]-4-(2-fluoro-phenyl)-butan-1-one] | 0.101 to 1
4 | COC[C@@H]1CCCN1C(=O)C[C@H](N)Cc1ccccc1F [Example 33] | 0.101 to 1
5 | N#Cc1ccc(OC[C@@H]2CCCN2C(=O)C[C@H](N)Cc2ccccc2F)cc1 [Example 34] | < 0.1
6 | N[C@@H](CC(=O)N1CCC[C@H]1COc1ccccc1)Cc1ccccc1F [Example 35] | < 0.1
7 | N#Cc1cccc(OC[C@@H]2CCCN2C(=O)C[C@H](N)Cc2ccccc2F)c1 [Example 36] | < 0.1
8 | N#Cc1ccccc1OC[C@@H]1CCCN1C(=O)C[C@H](N)Cc1ccccc1F [Example 37] | < 0.1
9 | N[C@@H](CC(=O)N1CCC[C@H]1COc1ccc(F)cc1)Cc1ccccc1F [Example 38] | < 0.1
10 | N[C@@H](CC(=O)N1CCC[C@H]1COc1ccccn1)Cc1ccccc1F [Example 39] | < 0.1
11 | N[C@@H](CC(=O)N1CCC[C@H]1COc1cccc(F)c1)Cc1ccccc1F [Example 40] | < 0.1
12 | N[C@@H](CC(=O)N1CCC[C@H]1COc1cccc(F)c1)Cc1cccc(Cl)c1 [Example 41] | < 0.1
13 | N[C@@H](CC(=O)N1CCC[C@H]1CNC(=O)c1ccccc1)Cc1ccc(F)cc1 [Example 44] | 0.101 to 1
14 | N[C@@H](CC(=O)N1CCC[C@H]1CNC(=O)c1ccccc1)Cc1cccc(Cl)c1 [Example 45] | < 0.1
15 | N[C@@H](CC(=O)N1CCC[C@H]1CNC(=O)c1ccccc1)Cc1cccc(F)c1 [Example 46] | < 0.1
16 | N#Cc1cccc(C[C@@H](N)CC(=O)N2CCC[C@H]2CNC(=O)c2ccccc2)c1 [Example 47] | 0.101 to 1
17 | N[C@@H](CC(=O)N1CCC[C@H]1CNC(=O)c1ccccc1)Cc1ccccc1Cl [Example 48] | < 0.1
18 | N[C@@H](CC(=O)N1CCC[C@H]1CNC(=O)c1ccccc1)Cc1ccccc1 [Example 49] | 0.101 to 1
19 | N[C@@H](CC(=O)N1CCC[C@H]1CNC(=O)c1ccccc1)Cc1ccc(F)c(F)c1 [Example 50] | < 0.1
20 | COc1cccc(C(=O)NC[C@@H]2CCCN2C(=O)C[C@H](N)Cc2ccccc2F)c1 [Example 54, N-{1-[3-Amino-4-(2-fluoro-phenyl)-butyryl]-pyrrolidin-2-ylmethyl}-3-methoxy-benzamide] | < 0.1
21 | N[C@@H](CC(=O)N1CCC[C@H]1CNC(=O)c1ccccc1F)Cc1ccccc1F [Example 55] | < 0.1
22 | N[C@@H](CC(=O)N1CCC[C@H]1CNC(=O)c1cccc(F)c1)Cc1ccccc1F [Example 56] | < 0.1
23 | N[C@@H](CC(=O)N1CCC[C@H]1CNC(=O)c1ccc(F)cc1)Cc1ccccc1F [Example 57] | < 0.1
24 | N[C@@H](CC(=O)N1CCC[C@H]1CNC(=O)c1cccnc1)Cc1ccccc1F [Example 59] | < 0.1
25 | N[C@@H](CC(=O)N1CCC[C@H]1CNC(=O)c1ccncc1)Cc1ccccc1F [Example 60] | < 0.1
26 | CS(=O)(=O)c1ccc(C(=O)NC[C@@H]2CCCN2C(=O)C[C@H](N)Cc2ccccc2F)cc1 [Example 61] | < 0.1

Row | SMILES | IC50 [µM]
27 | CS(=O)(=O)c1ccccc1C(=O)NC[C@@H]1CCCN1C(=O)C[C@H](N)Cc1ccccc1F [Example 62] | < 0.1
28 | N[C@@H](CC(=O)N1CCC[C@H]1CNc1ccccc1)Cc1ccccc1F [Example 66, (3R)-Amino-4-(2-fluoro-phenyl)-1-[(2S)-phenylaminomethyl-pyrrolidin-1-yl]-butan-1-one] | < 0.1
29 | N[C@@H](CC(=O)N1CCC[C@H]1CN1CCCC1)Cc1cccc(Cl)c1 [Example 67] | 0.101 to 1
30 | N#Cc1ccc(NC[C@@H]2CCCN2C(=O)C[C@H](N)Cc2ccccc2F)nc1 [Example 68, 6-({1-[3-Amino-4-(2-fluoro-phenyl)-butyryl]-pyrrolidin-2-ylmethyl}-amino)-nicotinonitrile] | < 0.1
31 | N[C@@H](CC(=O)N1CCC[C@H]1CNc1cnccn1)Cc1ccccc1F [Example 69] | 0.101 to 1
32 | COc1ccc(S(=O)(=O)NC[C@@H]2CCCN2C(=O)C[C@H](N)Cc2ccccc2F)cc1OC [Example 78, N-{1-[3-Amino-4-(2-fluoro-phenyl)-butyryl]-pyrrolidin-2-ylmethyl}-3,4-dimethoxy-benzenesulfonamide] | < 0.1
33 | N[C@@H](CC(=O)N1CCC[C@H]1CNS(=O)(=O)c1cccc(F)c1)Cc1ccccc1F [Example 79] | < 0.1
34 | COc1ccc(S(=O)(=O)NC[C@@H]2CCCN2C(=O)C[C@H](N)Cc2ccccc2F)cc1 [Example 80] | < 0.1
35 | N[C@@H](CC(=O)N1CCC[C@H]1CNS(=O)(=O)c1ccc(Cl)cc1)Cc1ccccc1F [Example 81] | < 0.1
36 | N[C@@H](CC(=O)N1CCC[C@H]1CNS(=O)(=O)c1cc(Cl)ccc1Cl)Cc1ccccc1F [Example 82] | < 0.1
37 | N[C@@H](CC(=O)N1CCC[C@H]1CNS(=O)(=O)c1ccccc1F)Cc1ccccc1F [Example 83] | < 0.1
38 | N[C@@H](CC(=O)N1CCC[C@H]1CNS(=O)(=O)c1ccc(F)cc1)Cc1ccccc1F [Example 84] | < 0.1
39 | CS(=O)(=O)NC[C@@H]1CCCN1C(=O)C[C@H](N)Cc1ccccc1F [Example 85] | < 0.1
40 | N[C@@H](CC(=O)N1CCC[C@H]1CNC(=O)Nc1ccccc1)Cc1ccccc1F [Example 86, 1-{1-[(3R)-Amino-4-(2-fluoro-phenyl)-butyryl]-pyrrolidin-(2S)-ylmethyl}-3-phenyl-urea] | < 0.1
41 | N[C@@H](CC(=O)N1CCCC[C@H]1CNC(=O)c1ccccc1)Cc1ccccc1F [Example 87, N-{1-[(3R)-Amino-4-(2-fluoro-phenyl)-butyryl]-piperidin-(2S)-ylmethyl}-benzamide] | 0.101 to 1
42 | N[C@@H](CC(=O)N1CCCC[C@H]1CNS(=O)(=O)c1ccccc1)Cc1ccccc1F [Example 88, N-{1-[(3R)-Amino-4-(2-fluoro-phenyl)-butyryl]-piperidin-(2S)-ylmethyl}-benzenesulfonamide] | 0.101 to 1
43 | N[C@@H](CC(=O)N1CCCC(CNS(=O)(=O)c2ccccc2)C1)Cc1ccccc1F (stereo partly shown) [Example 89, N-{1-[3-Amino-4-(2-fluoro-phenyl)-butyryl]-piperidin-3-ylmethyl}-benzenesulfonamide] | 0.101 to 1
44 | N[C@@H](CC(=O)N1CC(CNC(=O)c2ccccc2)C1)Cc1ccccc1F [Example 90, N-{1-[(3R)-Amino-4-(2-fluoro-phenyl)-butyryl]-azetidin-3-ylmethyl}-benzamide] | 0.101 to 1
45 | N[C@@H](CC(=O)N1CC(CNS(=O)(=O)c2ccccc2)C1)Cc1ccccc1F [Example 91, N-{1-[3-Amino-4-(2-fluoro-phenyl)-butyryl]-azetidin-3-ylmethyl}-benzenesulfonamide] | 0.101 to 1
46 | N[C@@H](CC(=O)N1CC(COc2ccccc2)C1)Cc1ccccc1F [Example 92, 3-Amino-4-(2-fluoro-phenyl)-1-(3-phenoxymethyl-azetidin-1-yl)-butan-1-one] | 1 to 2
47 | N[C@@H](CC(=O)N1CC(COc2ccccn2)C1)Cc1ccccc1F [Example 93] | 1 to 2
48 | N[C@@H](CC(=O)N1CCC[C@H]1CNc1nc(-c2ccccc2)no1)Cc1ccccc1F [Example 100, (3R)-Amino-4-(2-fluorophenyl)-1-{(2S)-[(3-phenyl-[1,2,4]oxadiazol-5-ylamino)-methyl]-pyrrolidin-1-yl}butan-1-one] | 0.101 to 1
49 | N[C@@H](CC(=O)N1CCC[C@H]1CNc1nc(-c2ccccn2)no1)Cc1ccccc1F [Example 101, (3R)-Amino-4-(2-fluorophenyl)-1-{(2 S)-[(3-pyridin-2-yl-[1,2,4]oxadiazol-5-ylamino)-methyl]-pyrrolidin-1-yl}-butan-1-one] | < 0.1
50 | N[C@@H](CC(=O)N1CCC[C@H]1CNc1nc(-c2cccc(Cl)c2)no1)Cc1ccccc1F [Example 102] | < 0.1
51 | N[C@@H](CC(=O)N1CCC[C@H]1CNc1nc(-c2cccc(F)c2)no1)Cc1ccccc1F [Example 103, (3R)-Amino-4-(2-fluorophenyl)-1-((2S)-{[3-(3-fluorophenyl)-[1,2,4]oxadiazol-5-ylamino]-methyl}-pyrrolidin-1-yl)-butan-1-one] | 1 to 2
52 | CS(=O)(=O)c1ccc(-c2noc(NC[C@@H]3CCCN3C(=O)C[C@H](N)Cc3ccccc3F)n2)cc1 [Example 104, (3R)-Amino-4-(2-fluorophenyl)-1-((2S)-{[3-(4-methanesulphonylphenyl)-[1,2,4]oxadiazol-5-ylamino]-methyl}-pyrrolidin-1-yl)-butan-1-one] | < 0.1
